These results are taken from US12109195B2, “Compositions and methods for treatment of vaginal infections” (priority 2020, dated 2024).

Structures can show the parent of a compound that is named as a salt.

The test system of one assay is G. vaginalis. As to the kind of experiment: Minimum inhibitory concentration (MIC) against G. vaginalis, two-fold dilutions in 96-well plates. Format: cell-based. As to conditions: Gardnerella vaginalis; after 48 hours; tested 0.0625 to 16 mg/mL; FIG. 1A; read-out: concentration showing significant inhibition of growth of G. vaginalis (MIC). The method, then: Formulations of creatinine hydrochloride were prepared in different concentrations to evaluate the effect on the inhibition of growth of G. vaginalis. Creatinine hydrochloride was used in varying concentrations ranging from 0.0625 mg/mL to 16 mg/mL. The minimum inhibitory concentration (MIC) for each solution was determined against G. vaginalis using two-fold dilutions and flat-bottom 96-well plates.

The next assay has as its system M. mulieris. As to the kind of experiment: Minimum inhibitory concentration (MIC) against M. mulieris, two-fold dilutions in 96-well plates. As to conditions: FIG. 2A. Format: cell-based, Mobiluncus mulieris. The protocol:
The minimum inhibitory concentration (MIC) for each solution was determined against M. mulieris using two-fold dilutions and flat-bottom 96-well plates. […] Methods for Antimicrobial Susceptibility Testing of Anaerobic Bacteria; Approved Standard—6th Edition).

Take `CN1CC(=O)NC1=N` [creatinine hydrochloride]: the MIC in the assay on G. vaginalis was found to be 4000 µg/mL; in the assay with M. mulieris (Mobiluncus mulieris, after 48 hours, tested 0.0625 to 16 mg/mL, read-out: concentration that inhibited growth of M. mulieris (MIC)) it was 4000 µg/mL. For the same compound, in the assay with M. mulieris (after 72 hours), the “concentration that still inhibited growth of M. mulieris” value turned out to be 8 mg/mL.
